Read-outs that look alike come from different tables or passages of the source.
Tests used:
[1] = system: NCIH1755 cells (BRAF G469A); experiment: Proliferation inhibition (CellTiter-Glo), NCIH1755; assay type: cell-based, human; conditions: NCIH1755, 3 days, read-out: NCIH1755 Prolif. EC50
Method: (§1) All cancer cell lines (A375, A101D, A2058, RKO, HT29 SK-MEL 30, IPC298, HepG2, HCT-116, Lovo, SWV620, SW480, NCI-H358, NCI-H2122, Calu-6, NCIH2087, NCIH1755, NCIH1666 and Mewo) were obtained from ATCC and cultured in RPMI-1640 medium (Gibco) supplemented with 5% heat inactivated fetal bovine serum (FBS, Wisent) at 37° C. under 5% CO2. Cells were maintained in T175 flasks (Greiner). They were passaged by removing the culture medium, washing once in 10 mL of room temperature Phosphate Buffered Saline (PBS; Wisent) and incubating at 37° C. with 2 mL of 0.05% Trypsin (Thermo-Fisher). Trypsin was then inactivated by adding complete growth medium and the cells were then replated in a T175 culture dish at the appropriate dilution. All cell lines were routinely tested for mycoplasma contamination. Tissue type and mutational status of each cell line can be found in Table B.
(§2) CellTiter-Glo® viability analysis was conducted on cells plated in 100 μL of complete RPMI-1640 growth medium in 96-well flat-bottomed white opaque plates (Greiner or Croning) at a density indicated in Table E (for each CCL, number of cells plated per well of a 96-well plate to perform the CellTiter-Glo® cell viability assay). The cell density in cells/cm^2 would correspond to cell number divided by the area of one well of a 96-well plate (0.32 cm^2). […]
(§3) After 3 days of incubation, the growth media were removed by aspiration and 60 μL of diluted CellTiter-Glo® reagent (10 μL CellTiter-Glo® reagent+50 μL of PBS) was added to each well. […] Luminescence signals were then acquired on a Synergy Neo2 plate reader (Biotek).
(§4) The effect of each compound dilution on the proliferation of cancer cell lines was expressed in % inhibition and calculated as follows. […]
(§5) The ability of each compound to inhibit proliferation was expressed as a EC50 value obtained by plotting the effect values for each data point of a dilution series and fitting the obtained curves using a log(agonist) versus response-variable slope (four parameters) function using GraphPadPrism (V7.0) or Dotmatics Screening Ultra platform.

[2] = system: SK-MEL30 cells (NRAS-Q61K); experiment: Proliferation inhibition (CellTiter-Glo), SK-MEL30; assay type: cell-based, human; conditions: SK-MEL30, 3 days, read-out: SK-MEL30 Prolif. EC50
Method: as §1, §2, §3, §4, §5

[3] = system: NCI-H2122 cells (KRAS-G12C); experiment: Proliferation inhibition (CellTiter-Glo), NCI-H2122; assay type: cell-based, human; conditions: NCI-H2122, 3 days, read-out: NCI-H2122 Prolif. EC50
Method: as §1, §2, §3, §4, §5

[4] = system: NCI-H358 cells (KRAS-G12C); experiment: Proliferation inhibition (CellTiter-Glo), NCI-H358; assay type: cell-based, human; conditions: NCI-H358, 3 days, read-out: NCI-H358 Prolif. EC50
Method: as §1, §2, §3, §4, §5

A101D cells (BRAF V600E) = experiment: Proliferation inhibition (CellTiter-Glo), A101D; assay type: cell-based, human; conditions: 3 days, read-out: A101D Prolif. EC50
Method: as §1, with “Trypsin was then inactivated by adding complete growth medium and the cells were then replated in a T175 culture dish at the appropriate dilution. All cell lines were routinely tested for mycoplasma contamination. Tissue type and mutational status of each cell line can be found in Table B.” left out
as §3, §4, §5

A2058 cells (BRAF V600E) = experiment: Proliferation inhibition (CellTiter-Glo), A2058; assay type: cell-based, human; conditions: A2058, 3 days; read-out: A2058 Prolif. EC50
Method: as §1, with “Trypsin was then inactivated by adding complete growth medium and the cells were then replated in a T175 culture dish at the appropriate dilution. All cell lines were routinely tested for mycoplasma contamination. Tissue type and mutational status of each cell line can be found in Table B.” left out
as §3, §4, §5

[5] = Body weight during TGI experiments; assay type: in vivo, NU(NCr)-Foxn1nu female mice; conditions: repeated oral treatment (QD or BID), Example 99 sodium salt suspension
Method: NU(NCr)-Foxn1nu mice were inoculated subcutaneously at the right flank with 1×10^6 (HCT-116 or A375) or 3×10^6 (A101D, A2058, RKO, HT29 SK-MEL 30, Calu-6, HepG2, Lovo, NCI-H2122, NCIH1666 and NCIH1755) tumour cells in 0.2 mL of the 50:50 PBS:Matrigel mixture for tumour development. Tumour measurements were taken with an electronic microcalliper three times weekly. In addition, body weights were recorded at these times. Tumor volume was calculated, taking length to be the longest diameter across the tumor and width to be the corresponding perpendicular diameter using the following formula: ((length×width×[…])/2).
For tumor growth inhibition (TGI) experiments, the treatment was performed when mean tumour size reached approximately 200 mm^3, with at least 7 mice for each time point randomized to balance the average tumour size for each treatment group. Mice were administered orally (QD or BID) with a suspension of Example 99 sodium salt in a formulation consisting of 1% NMP, 0.3% Tween-80, pH 9.1. Example 99: Na+ powder was directly resuspended in the complete blank formulation. Dosing volume was 10 mL/kg, yielding the indicated doses (doses are in mg per kg or mpk). Tumours were measured with an electronic microcalliper three times weekly. In addition, body weights were recorded at these times. Tumor volume was calculated as described above. […]

| EC50 ([2]; Homo sapiens, SK-MEL-30, 72 h) | EC50 ([3]; Homo sapiens, 72 h) | EC50 ([4]; Homo sapiens, 72 h) | EC50 [2] | EC50 [3] | EC50 [4] | Structure (SMILES) | EC50 ([1]; Homo sapiens, NCI-H1755, 72 h) | EC50 (A101D cells (BRAF V600E)) | EC50 [1] | EC50 (A2058 cells (BRAF V600E)) | change in body weight compared to vehicle-treated animals [5] |
| --- | --- | --- | --- | --- | --- | --- | --- | --- | --- | --- | --- |
| < 0.03 µM | 0.3 to 3 µM | 0.3 to 3 µM |  |  |  | Cc1ccc2c(Nc3cccc(Cl)c3F)nccc2c1NC(=O)c1csc2c(N)ncnc12 [Belvarafenib, reference compound] | > 3 µM |  |  |  |  |
|  |  |  | < 0.03 µM | 0.3 to 3 µM | < 0.03 µM | Nc1cccc2c1ncn2-c1ccc2ncnc(Nc3c(F)ccc(NS(=O)(=O)c4cccc(Cl)c4Cl)c3F)c2n1 [Example 99] |  | < 0.03 µM | < 0.03 µM | < 0.03 µM | did not result in any change in body weight |
|  |  |  | < 0.03 µM | 0.3 to 3 µM | < 0.03 µM | CC1(O)CCN(c2cccc3c2ncn3-c2ccc3ncnc(Nc4c(F)ccc(NS(=O)(=O)c5cccc(Cl)c5Cl)c4F)c3n2)CC1 [Example 524] |  | < 0.03 µM | 0.3 to 3 µM | < 0.03 µM |  |

— US12139488B2, “Pyrido[3,2-d]pyrimidine compounds uses thereof for treating a proliferative disease” (Universite de Montreal, priority 2021, dated 2024)
